This note sets out measurements from article PMC12193058, “Discovery of Small Molecules Targeting Norovirus 3CL Protease by Multi-Stage Virtual Screening” (International Journal of Molecular Sciences, 2025).

Structures are written as SMILES.

Series [1] deals with Murine norovirus (MNV, strain MNV-1.CW1). The experiment in a line: Antiviral assay: MNV-infected RAW264.7 cells, protection from CPE (MTS). The class given is cell-based. As for the experimental part:
(§1) Murine norovirus (MNV, strain MNV-1. CW1) was propagated as previously described. HG23 cells and RAW 264.7 cells were maintained as described earlier. The cells were incubated at 37 °C in a humidified atmosphere of 5% CO2. To obtain virus stock, once full CPE was observed, the cells underwent two freeze–thaw cycles and the virus was harvested from the supernatants after centrifugation (10 min, 1000× g) and stored at […]. The viral titer was determined by endpoint titration.
(§2) The experiment was performed as previously described. In short, RAW264.7 cells (1 × 10^4 cells/well) were infected with MNV.CW1 in the presence of a dilution series of compounds. Antiviral activity and cytotoxicity were determined using a colorimetric assay using 3-(4,5-dimethylthiazol-2-yl)-5-(3-carboxymethoxyphenyl)-2-(4 sulfophenyl)-2H-tetrazolium (MTS). The 50% effective concentration (EC50) was defined as the compound concentration that protected 50% of the cells from CPE. The cell viability % was calculated as (ODtreated/ODCC) × […] and the 50% cytotoxic concentration (CC50) was defined as the compound concentration that reduces the number of viable cells by 50%. HuNoVGI.1replicon: The experiment was performed as described earlier with minor modifications. In short, HG23 cells (7.5 × 10^2 cells/well) were seeded into the wells of a 96-well plate without G418 (Geneticin Selective Antibiotic). After 24 h of incubation, the tested compounds were added. The cells were incubated for another 72 h; then they were collected for RNA load quantification using RT-qPCR [34]. The EC50 values were defined as the compound concentration that led to a 50% reduction in the relative HuNoV GI.1 replicon RNA levels.

The nature of series [2]: Cytotoxicity assay (MTS) in non-infected cells. The format is cell-based. The following applies: mouse, RAW264.7 cells (non-infected); cytotoxic concentration to induce 50% death of non-infected cells; mean of two to three independent experiments. As for the experimental part: as §1, §2

For the compound `CC1=NN=C(O)C1CC(=O)N/N=C/c1cccc(Br)c1` (stereo not shown) [YY-0182], the EC50 (as a rule, the concentration giving half of the maximal effect) in series [1] was above 50 µM. Besides, the CC50 (usually the concentration that lowers cell viability or growth by half) in series [2] was above 50 µM.

`COc1cc(C(CC(=O)NCC(=O)NCc2ccco2)c2oc(C)cc(=O)c2O)ccc1O` (stereo not shown) [YY-0420]: the EC50 in series [1] was above 50 µM. In series [2], this compound displayed a CC50 above 50 µM.

On to `Cc1[nH][nH]c(=O)c1CC(=O)N1C[C@@H](c2ccccc2)O[C@@H](C(C)C)C1` [YY-0587], for which, in series [1], the EC50 was above 50 µM. In series [2], this compound returned a CC50 above 50 µM.

Take `CCC(SC1=Nc2ccccc2C2=NC(=O)C(CCC(=O)NCc3ccc(F)cc3)N12)C(=O)Nc1cccc(OC)c1` (stereo not shown) [YY-0734]: in series [1], the EC50 is above 50 µM. Also, in series [2], the CC50 was above 50 µM.

`Cc1cc(N)n(CC(=O)N(Cc2cccnc2)Cc2ccc3c(c2)OCO3)n1` [YY-0744]: the EC50 in series [1] is above 50 µM. Further, the CC50 in series [2] is above 50 µM.

As to `Cc1nc2ccc(NC(=O)N3CCNC(=O)C3CCO)cc2nc1C` (stereo not shown) [YY-0809], the EC50 in series [1] was above 50 µM. Also, in series [2], the CC50 was above 50 µM.

Regarding `COc1cncc(C(NC(=O)c2cc(=O)[nH]c3ccccc23)[C@H]2C[C@H](O)C2)c1` (stereo partly shown) [YY-3656], the EC50 in series [1] was above 50 µM. The CC50 in series [2] was above 50 µM.

Turning to `O=C(NC1CCCc2ccccc21)[C@H](Cc1ccccc1)NC(=O)N1CC(O)=Nc2ccccc21` (stereo partly shown) [YY-3724], in series [1], the EC50 is above 50 µM. The same compound yielded a CC50 in series [2] above 50 µM.

Turning to `CC(C)C1C(O)=Nc2ccccc2N1C(=O)N[C@@H](Cc1ccccc1)C(=O)N[C@@H](CCC(N)=O)C(=O)O` (stereo partly shown) [YY-4047], the EC50 in series [1] was above 50 µM. The CC50 in series [2] is above 50 µM.

`CNC(=O)c1ccc(C)c(NC(=O)NCCN2CCNC2=O)c1` [YY-4095] had an EC50 in series [1] above 50 µM. Further, the CC50 in series [2] is above 50 µM.

In series [1], `COc1ccc(CCNC(=O)[C@H](Cc2ccccc2)NC(=O)N2CC(O)=Nc3ccccc32)cc1` [YY-4204] gave an EC50 above 50 µM. Besides, the CC50 in series [2] is above 50 µM.

In series [1], `COc1ccc(C(CC(=O)N2CCc3c([nH]c4ccccc34)C2)c2oc(C)cc(=O)c2O)cc1O` (stereo not shown) [YY-4958] returned a half-maximal effective concentration (EC50) above 50 µM. This compound showed a CC50 in series [2] above 50 µM.

`CCCCNC(=O)[C@H](Cc1ccccc1)NC(=O)N1CC(O)=Nc2ccccc21` [YY-6127] returned an EC50 in series [1] above 50 µM. In series [2], this compound returned a CC50 above 50 µM.

As for `COc1ccc(CCN(C(=O)Cc2nnc(O)c3ccccc23)[C@@H](C)C(N)=O)cc1` [YY-8610], the EC50 in series [1] was above 50 µM. This compound had a CC50 in series [2] above 50 µM.

`O=C(ON1C(=O)CCC1=O)[C@H](Cc1ccccc1)NC(=O)N1CC(O)=Nc2ccccc21` [YY-9242] returned an EC50 in series [1] above 50 µM. Moreover, in series [2], the CC50 was above 50 µM.

`O=C(NCc1cccc(Cl)c1)[C@H](Cc1ccccc1)NC(=O)N1CC(O)=Nc2ccccc21` [YY-9773] registered an EC50 in series [1] above 50 µM. Besides, the CC50 in series [2] is above 50 µM.

For the compound `COc1cc(NC(=O)[C@H](Cc2ccccc2)NC(=O)N2CC(O)=Nc3ccccc32)cc(OC)c1` [YY-9837], the EC50 in series [1] was above 50 µM. Moreover, in series [2], half-maximal cytotoxicity (CC50) was put at 45 µM.
